Legend:
Assay type in all cases: in vivo, human
[1] = Prospective clinical intervention study in CD patients: clinical disease activity (Harvey-Bradshaw Index); details: 100 mg riboflavin daily for 3 weeks, before vs after
Procedure: (§1) In a prospective clinical intervention study, 70 CD patients were included and divided into two groups with (active) and without (quiescent) evidence of mucosal inflammation (defined by fecal calprotectin (FC) cut-off value: 200 μg/g). Patients received 100 mg riboflavin daily for 3 weeks. Clinical disease activity (Harvey-Bradshaw Index: HBI), inflammatory biomarkers (including interleukin 2) as well as fecal microbial composition (including pathogenic Enterobacteriaceae including E. coli) were analyzed before and after riboflavin intervention.

[2] = system: Enterobacteriaceae including E. coli; experiment: Prospective clinical intervention study in CD patients: fecal microbial composition; details: CD patients with thiopurine treatment; 100 mg riboflavin daily for 3 weeks
Procedure: as §1

interleukin 2 = experiment: Prospective clinical intervention study in CD patients: inflammatory biomarkers (interleukin 2); details: CD patients with thiopurine treatment; 100 mg riboflavin daily for 3 weeks
Procedure: as §1

In the case of `Cc1cc2nc3c(=O)[nH]c(=O)nc-3n(C[C@H](O)[C@H](O)[C@H](O)CO)c2cc1C` [riboflavin], the “clinical disease activity (HBI)” value ([1]; CD patients with mesalazine treatment) was “this was not the case (not as pronounced as)”, the “clinical disease activity (HBI)” value ([1]; CD patients with thiopurine treatment (particularly quiescent disease)) was “further reduced clinical disease activity (HBI)” and the “Enterobacteriaceae including E. coli (fecal)” value [2] was “further reduction”. The “proinflammatory cytokine IL2” value (interleukin 2) was “further reduction”.
